Source: ChEMBL document CHEMBL1155585, “Cypellocarpins A-C, phenol glycosides esterified with oleuropeic acid, from Eucalyptus cypellocarpa” (J Nat Prod, 2000)

Assays:
Mus musculus [1] = organism: Mus musculus; experiment: Antitumor activity against (+/-)-(E)-4-methyl-2-[(E)-hydroxyimino]-6-methoxy-5-nitro-3-hexenamide/TPA-induced carcinogenesis in mouse assessed as reduction in number of tumor bearing mouse at 50 molar ratio/TPA after 10 weeks relative to control; format: functional; design: scale not given: the % may be the effect or the level left
[2] = Cytotoxicity against human Raji cells assessed as cell viability at 1000 molar ratio/TPA; format: cell-based; settings: read-out: Activity
Mus musculus [3] = organism: Mus musculus; experiment: Antitumor activity against (+/-)-(E)-4-methyl-2-[(E)-hydroxyimino]-6-methoxy-5-nitro-3-hexenamide/TPA-induced carcinogenesis in mouse assessed as reduction in number of tumor bearing mouse at 50 molar ratio/TPA after 20 weeks relative to control; format: functional; design: scale not given: the % may be the effect or the level left

| Compound | Activity (Mus musculus [1]) [%] | viability at 1000 molar ratio/TPA [2] [%] | Activity (Mus musculus [3]) [%] |
| --- | --- | --- | --- |
| Cc1c(O[C@@H]2O[C@H](CO)[C@@H](O)[C@H](O)[C@H]2O)c(C=O)c(O)c2c1OC(C)(C)C=C2 | 30 | 60 |  |
| Cc1cc(=O)c2c(O)cc(O[C@@H]3O[C@H](COC(=O)C4=CC[C@H](C(C)(C)O)CC4)[C@@H](O)[C@H](O)[C@H]3O)cc2o1 [CYPELLOCARPA C] | 30 | 70 |  |
| CC(C)(O)[C@H]1CC=C(C(=O)OC[C@H]2O[C@@H](Oc3cc(C(=O)O)cc(O)c3O)[C@H](O)[C@@H](O)[C@@H]2O)CC1 [CYPELLOCARPIN A] |  | 70 |  |
| CC1(O)CC(=O)c2c(O)cc(O[C@@H]3O[C@H](COC(=O)C4=CC[C@H](C(C)(C)O)CC4)[C@@H](O)[C@H](O)[C@H]3O)cc2O1 (stereo partly drawn) [CYPELLOCARPIN B] | 30 | 70 | 58 |
